Experimental data reported in patent US6019959A, “Oligomeric compounds that contain perfluoroalkyl, process for their production, and their use in NMR diagnosis” (Schering Aktiengesellschaft, priority 1998, dated 2000).
Entries after “also recorded” stand apart in the source; their conditions may differ. Where two headings read alike, the source gives them in different places. Values belong to the compound of their own block, whether it stands above or below them.

How the values were obtained:
[1] = Lymph node concentration in guinea pigs after subcutaneous administration (ICP-AES); format: in vivo, guinea pig; conditions: 10 μmol/kg s.c., MW±SD, n=3
Text: The compounds according to the invention meet all of the requirements that are imposed by contrast media in indirect NMR lymphography: good local compatibility, quick removal from the injection site, quick and as complete an elimination as possible from the entire organism. They also show a high concentration over several lymph node stations and thus allow relevant diagnostic assessments. Thus, in the guinea pig model, a high concentration over several lymph node stations (popliteal, inguinal, iliac) after s.c. administration (2.5-10 μmol/kg of body weight, injection in the interdigital spaces of the hind paws) was shown. In especially suitable cases, gadolinium concentrations of, respectively, ≥200 or ≥300 μmol/l were thus obtained in the second (inguinal) and third (iliac) stations. Lymph node concentrations up to 1,000 μmol/l can usually be obtained with the compounds according to the invention.
The gadolinium complex of Example 19 was studied 30 minutes/90 minutes after subcutaneous administration (10 μmol of total gadolinium/kg of body weight, hind paw s.c.) to stimulated guinea pigs (complete Freund adjuvant; in each case 0.1 ml in the right and left upper and lower legs; 2 weeks before administration of the test substance) to determine their lymph node concentration in three successive lymph node stations (popliteal, inguinal, iliac). In this case, the results that are listed below (determination of gadolinium concentration using ICP-AES) are obtained:
Gd-Concentration [μmol/l] in three successive lymph node stations 30 and 90 minutes after interstitial administration of 10 μmol/kg (MW±SD, n=3)

[2] = Elimination of the contrast medium after s.c. administration (metal retention in organs); format: in vivo, guinea pig; conditions: 7 d p.i., 10 μmol/kg s.c., MW±SD, n=2
Text: After subcutaneous administration of 10 μmol of total gadolinium (Example 19)/kg of body weight in the hind paw of the guinea pig, the retention of metal in the liver, in the kidneys and in the spleen was examined 7 days after administration.
Gd Concentration [% of Dose] in the Liver, Kidneys, Spleen (7 d p.i.) After Interstitial Administration of 10 μmol/kg (MW±SD, n=2)

[3] = Retention of the opacifying metal at the injection site; format: in vivo, guinea pig; conditions: 10 μmol/kg s.c., MW±SD, n=3
Text: After s.c. administration of 10 μmol of total gadolinium (Example 19)/kg of body weight in the guinea pig's paw, the retention of metal at the injection site was studied at different times.
Gd-Concentration [% dose] at the Administration Site (Paw), After Interstitial Administration of 10 μmol/kg (MW±SD, n=3)

[4] = Determination of the T1-relaxivity with a Minispec pc 20 in human plasma; format: physicochemical; conditions: for R^1 (T^1-relaxivity): 0.47 T (20 MHz), 37° C., human plasma, normalized to one metal atom; for relaxivity r1,plasm: plasma
Description: Determination of the T^1 -Relaxivity of Selected Compounds
The relaxivity of the following compounds was determined
with a Minispec pc 20 (20 MHz, 0.47 T) at 37° C. in human plasma
and compared to that of Gd-DTPA-polylysine and Magnevist^(R) as
comparison substances. Since the substances according to the
invention contain more than one metal atom, the relaxivity was
normalized to one metal atom for purposes of comparison.

[5] = Blood elimination kinetics after one-time intravenous administration; format: in vivo, rats; conditions: for Distribution volume Vss (MEAN) / Elimination half-life tβ (MEAN) / Total clearance CLtot (MEAN) / tα (MEAN): two-compartment model, n=3; for distribution volume in comparison to Dy-DTPA / elimination from the blood in comparison to Dy-DTPA: i.v., rats
Description: (§1) For this purpose, after one-time intravenous administration (via a caudal vein) of the substances (dose: ≈100 μmol of metal per kg of body weight), the substance concentration in the blood (based on the Gd or Dy content) was determined over a period of up to 120 minutes p.i. using ICP-AES. The pharmacokinetic parameters: distribution volume (Vss), total clearance (CLtot) and elimination half-life (tb) were calculated with a special computer program (TOPFIT 2.0; Thomae, Schering, Godecke), whereby a two-compartment distribution model was used as a basis.
The Gd and Dy contents in the blood were determined using ICP-AES.
as §1, with “metal” for “Gd or Dy”

[6] = Contrast-medium-supported MR angiography; format: in vivo, rats; conditions: one-time i.v. 50 or 100 μmol/kg, 2.0 tesla
Description: The studies on contrast-medium-supported MR angiography were performed on an experimental MRT system (SISCO SIS 85, 2.0 tesla) with a 3 D FLASH technique (10/2.6/40°).
To determine the effectiveness of contrast media for visualizing blood vessels, anesthetized (Rompun®+Ketavet®, 1+1, v/v; ≈1 ml per kg of body weight, i.m.) rats (Han. Wistar; ≈200 g of body weight) were studied by MR tomography.
The MIP (maximum intensity projection) images were calculated from the 3 D FLASH experiments before (left) and directly after one-time i.v. administration of 50 μmol/kg (center) or 100 μmol/kg (right) of the substance of Example 1g.

[7] = In-vivo comparison with an intravascular and an extracellular contrast medium in blocked kidneys (diffusibility); set-up: species or system rats; conditions: for Percentage of the dose that remains in the blood space: i.v., blocked renal vessels, compound 2 set at 100%
Description: As test animals, three 250 g male (Schering-SPF) rats were used. The renal vessels in the animals were blocked to prevent renal elimination and, assuming that fecal elimination is negligible, to obtain a measure of the diffusibility of the formulation according to the invention from the blood into the surrounding tissue. 0.5 ml (in each case 10 mmol/l) of the following contrast medium solution was intravenously administered per animal: a mixture consisting of 1 part each of the compound of Example 1g, named compound 1 below, of intravascular contrast medium Eu-DTPA-albumin, named compound 2 below and of extracellular contrast medium Dy-DTPA, named compound 3 below. Via a catheter in the common carotid artery, blood samples were taken at the following times: 15, 30, 45, 60, 90 seconds; 3, 5, 10, 15 minutes p.i. In the blood samples that were obtained, in each case the concentrations of gadolinium (Gd), europium (Eu) and dysprosium (Dy) were measured in parallel using atom emission spectrometry (ICP-AES). The proportion of the intravascular contrast medium compound 2 (Eu) that remains in the blood space was set at 100%. It was possible to compare the proportion of the formulation according to the invention of compound 1 (Gd) and compound 3 (Dy, extracellular comparison substance) that remained in the blood space by the different labeling in the same animal, and the proportion was set as a percentage of the concentration of compound 2.

[8] = rat, in vivo; cited from earlier work
[9] = cited from earlier work
[10] = Table 4, i.v. ≈100 μmol metal/kg
[11] = Table 3, i.v. ≈100 μmol metal/kg

Compound: 1,4,7-Tris{1,4,7-tris(N-carboxylatomethyl)-10-[N-(4,7-diaza-3,6,9-trioxo)-nonane-2,9-diyl]-1,4,7,10-tetraazacyclododecane, Gd complex}-10-[N-acetyl-(2-amino-N-ethyl-N-perfluoro-octylsulfonyl)]-1,4,7,10-tetraazacyclododecane [Example 19]
concentration ([1]; 30 minutes p.i., read-out: Gd concentration, blood): 24 ± 3 µM
concentration ([1]; 30 minutes p.i., read-out: Gd concentration, iliac lymph nodes): 50 ± 18 µM
concentration ([1]; 30 minutes p.i., read-out: Gd concentration, inguinal profund lymph nodes): 43 ± 41 µM
concentration ([1]; 30 minutes p.i., read-out: Gd concentration, popliteal lymph nodes): 345 ± 319 µM
concentration ([1]; 30 minutes p.i., read-out: Gd concentration, urine): 261 ± 167 µM
concentration ([1]; 90 minutes p.i., read-out: Gd concentration, blood): 25 ± 4 µM
concentration ([1]; 90 minutes p.i., read-out: Gd concentration, iliac lymph nodes): 20 ± 8 µM
concentration ([1]; 90 minutes p.i., read-out: Gd concentration, inguinal profund lymph nodes): 9 ± 2 µM
concentration ([1]; 90 minutes p.i., read-out: Gd concentration, popliteal lymph nodes): 75 ± 20 µM
concentration ([1]; 90 minutes p.i., read-out: Gd concentration, urine): 348 ± 119 µM
Gadolinium content in the organs, kidneys [2]: 0.06 ± 0.04 % dose
Gadolinium content in the organs, liver [2]: 0.09 ± 0.09 % dose
Gadolinium content in the organs, spleen [2]: 0.00 ± 0.01 % dose
Gadolinium concentration at the injection site (paw) ([3]; 30 minutes p.i.): 48.4 ± 10.4 % of dose
Gadolinium concentration at the injection site (paw) ([3]; 90 minutes p.i.): 8.0 ± 1.7 % of dose
Gadolinium concentration at the injection site (paw) ([3]; 7 days p.i.): 0.7 ± 0.6 % of dose
R^1 (T^1-relaxivity) [4]: 21.4 L/mmol/s
relaxivity r1,plasm [4]: ≈ 19.5 l*mmol^-1 *s^-1
Distribution volume Vss (MEAN) [5, 10]: 0.12 Ukg
Elimination half-life tβ (MEAN) [5, 10]: 1.49 h
Total clearance CLtot (MEAN) [5, 10]: 0.94 mL·kg·min
tα (MEAN) [5, 10]: 2.52 min
distribution volume in comparison to Dy-DTPA [5]: smaller distribution volume
elimination from the blood in comparison to Dy-DTPA [5]: significantly slower elimination from the blood

Distribution volume Vss (MEAN) [5, 11]: 0.09 Ukg
Elimination half-life tβ (MEAN) [5, 11]: 2.813 h
Total clearance CLtot (MEAN) [5, 11]: 0.41 mU (min*kg)
tα (MEAN) [5, 11]: 4.06 min
distribution volume in comparison to Dy-DTPA [5]: smaller distribution volume
Percentage of the dose that remains in the blood space ([7]; 30 seconds p.i.): 84%
Percentage of the dose that remains in the blood space ([7]; 3 minutes p.i.): 62%
Percentage of the dose that remains in the blood space ([7]; 10 minutes p.i.): 44%
Compound: CC(C(=O)NCC(=O)NCC(=O)N1CCN(C(=O)CNC(=O)CNC(=O)C(C)N2CCN(CC(=O)[O-])CCN(CC(=O)[O-])CCN(CC(=O)[O-])CC2)CCN(C(=O)COCCC(F)(F)C(F)(F)C(F)(F)C(F)(F)C(F)(F)C(F)(F)C(F)(F)C(F)(F)F)CCN(C(=O)CNC(=O)CNC(=O)C(C)N2CCN(CC(=O)[O-])CCN(CC(=O)[O-])CCN(CC(=O)[O-])CC2)CC1)N1CCN(CC(=O)[O-])CCN(CC(=O)[O-])CCN(CC(=O)[O-])CC1.[Gd+3].[Gd+3].[Gd+3] (centres unmarked) [Example 1g, 1,4,7-Tris{,1,4,7-tris(N-carboxylatomethyl)-10-(N-1-methyl-3,6-diaza-2,5,8-trioxo-octane-1,8-diyl)-1,4,7,10-tetraazacyclododecane, Gdcomplex}-10-(N-2H,2H,4H,4H,5H,5H-3-oxa-perfluoro-tridecanoyl)-1,4,7,10-tetraazacyclododecane]
signal in the blood vessels in MR angiography (3 D FLASH, MIP) [6]: pronounced signal increase in the blood vessels
R^1 (T^1-relaxivity) [4]: 19.5 L/mmol/s
relaxivity r1,plasm [4]: ≈ 19.5 l*mmol^-1 *s^-1
elimination from the blood in comparison to Dy-DTPA [5]: significantly slower elimination from the blood
diffusibility from the vascular space into the surrounding tissue ([7]; compared with compound 2 and compound 3, listed as compound 1): slower during the entire test period; also recorded: significantly lower compared to the free diffusible, extracellular compound 3

Compound: Gd-DTPA-polylysine [reference compound]
excretion route [8]: excreted through the kidneys unaltered by glomerular filtration
R^1 (T^1-relaxivity) [4]: 16.8 L/mmol/s

Compound: albumin-Gd-DTPA
concentration in the liver tissue ([9]; 24 hours after intravenous injection): ~30 % of the dose
dose eliminated ([9]; within 24 hours): 20 % of the dose
